Results reported in patent US12508280B2, “Formulations for improving gut health” (DSM IP ASSETS B.V., priority 2018, dated 2025).

Experiments:
HT29 cells = assay: HT29 cell culture, quantification of immunological biomarkers; format: cell-based; conditions: 5× dose; effluent from 24 h fermentation; vs corresponding control
Experimental: Since ethanol is known to have antimicrobial effects, two blanks for each type of stock solution were included. As a source of the microbial community, a freshly prepared fecal suspension from the selected donor was added to the reactors. […] All tests, except the blanks, were performed in single repetition, resulting in 40 independent incubations, as specified in Table 1. Incubation conditions of the pre-screening experiment and the final experiment were 48 h at 37° C., under shaking (90 rpm) and anaerobic conditions. DNA were extracted from effluent samples collected from each fermentation flask before (0 h fermentation) and after fermentation (24 h fermentation) and use for microbiome composition analysis by Shotgun sequencing. Effluent samples were collected from each fermentation flask before ([…]), […] cell culture systems.
For both sets of in vitro experiments, HT29 cells were obtained from American Type Culture Collection (Manassas, VA). Cells were cultured in DMEM supplemented with 10% fetal bovine serum (FBS), 50 units/ml penicillin, 50 μg/ml streptomycin, L-glutamine, and nonessential amino acids (Life Technologies Europe B.V., Zug, Switzerland). Cells were seeded into 12-well plates at 8×10^5 cells per well and used after 2 days of preculture. They were starved in DMEM containing 0.25% FBS for 18 h before treatment. Cells were treated for 24 hours with TNF-α at 100 ng/mL or fermentation supernatants which were sterile filtered and diluted 1:20 in DMEM containing 0.25% FBS. All treatments were done in triplicate. Consequently, cytokines, chemokines and interleukins were quantified in HT29 supernatants using the Luminex Technology (LiquiChip Workstation IS 200, Qiagen, Hilden, Germany) with Bio-Plex Pro Human Cytokine Panel kits (Bio-Rad, Hercules, CA) or with Luminex Screening Assay kits (R&D Systems, Inc., Minneapolis, MN), following the manufacturer's instructions. The data were acquired with the Luminex IS 2.3 software and evaluated with the LiquiChip Analyser software (Qiagen, Hilden, Germany).

Bifidobacterium = assay: Microbiome composition by shotgun sequencing: Bifidobacterium (first set); format: cell-based, human; conditions: after 24 h fermentation, vs corresponding control
Experimental: (§1) Since ethanol is known to have antimicrobial effects, two blanks for each type of stock solution were included. As a source of the microbial community, a freshly prepared fecal suspension from the selected donor was added to the reactors. […] All tests, except the blanks, were performed in single repetition, resulting in 40 independent incubations, as specified in Table 1. Incubation conditions of the pre-screening experiment and the final experiment were 48 h at 37° C., under shaking (90 rpm) and anaerobic conditions. DNA were extracted from effluent samples collected from each fermentation flask before (0 h fermentation) and after fermentation (24 h fermentation) and use for microbiome composition analysis by Shotgun sequencing. Effluent samples were collected from each fermentation flask before (0 h fermentation) and after fermentation (48 h fermentation), sterilized by filtering through 0.22 μm filters and used for short chain fatty acids (SCFA), quantification of immunological biomarkers and in vitro analysis in cell culture systems.
(§2) For the first set of in vitro experiments, total DNA was extracted from all samples collected throughout the study using the QIAamp DNA stool minikit (Qiagen, Crawley, United Kingdom) according to the manufacturer's instructions, apart from addition of a bead-beating step and increasing the lysis temperature to 95° C. as described previously (McCormack et al., 2018).
(§3) After DNA isolation, DNA was quantified using the Qubit High Sensitivity DNA assay (Thermo Fisher). Whole metagenome libraries were then prepared using the Illumina Nextera XT kit (Illumina) in accordance with the manufacturer's instructions, with the following modifications: Firstly, tagmentation time was increased to 7 min and secondly, following incorporation of indices and Ampure purification of the products, the samples were each individually sized by running on an Agilent High Sensitivity Chip (Agilent) and quantified using the Qubit High Sensitivity DNA assay (Thermo Fisher) in accordance with Teagasc Sequencing Platform SOPs. The samples were then pooled equimolarly and sequenced on the Illumina NextSeq 500 with a NextSeq 500/550 v2 high-output reagent kit (300 cycles). All sequencing was done in the Teagasc sequencing facility in accordance with standard Illumina sequencing protocols.
(§4) Delivered raw FASTQ sequence files were quality checked as follows: poor quality and duplicate read removal, as well as trimming was implemented using a combination of SAM and Picard tools. Taxonomy was assigned to the reads using the Kraken software and functional analysis was performed with Super focus.

[1] = tested on: fecal microbial community; assay: Microbiome composition by shotgun sequencing: alpha diversity (first set); format: cell-based, human; conditions: after 24 h fermentation, vs corresponding control
Experimental: as §1, §2, §3, §4

[2] = tested on: Co-cultures of Caco-2 and HT29-MTX-E12 cells; assay: Barrier integrity (TEER), healthy gut model; format: cell-based; conditions: 48 h minus 0 h fermentation samples, vs corresponding control
Experimental: (§5) Co-cultures of Caco-2 and HT29-MTX-E12 cells were used to assess the protective effect of the supernatants before (0 h) and after fermentation (48 h) for both sets of in vitro experiments above.
(§6) CaCo-2 ECACC 86010202 and HT29-MTX-E12 ECACC 12040401 cells (both from European Collection of Cell Cultures, Salisbury, UK) were both cultured at 37° C., in atmosphere of 5% CO2 in DMEM medium supplemented with 4.5 g/L D-Glucose, 4 mM L-Glutamine, 1 mM Sodium Pyruvate, 1% MEM Non-Essential Amino Acids, 50 μg/mL Gentamicin (Life Technologies Europe B.V., Zug, Switzerland) and 10% heat-inactivated FBS (Sigma-Aldrich, Buchs, Switzerland). Sub-confluent cells were trypsinized using 0.25% Trypsin/EDTA (Life Technologies Europe B.V., Zug, Switzerland) and passaged at a ratio of 1:5-1:10 twice a week. Cells between passages 55 and 85 were used for this study.
(§7) Cells were seeded at a density of 20000 cells/well in a 7:3 ratio (Caco-2:HT29-MTX-E12) in Corning HTS Transwell-24 system PET membranes, 0.4 μM pore size, cell growth area 0.33 cm2/well (Corning BV, Amsterdam, Netherlands) and cultured as described above. Media was changed every second to third day.
For both sets of in vitro experiments, after cells being 13 days in culture, initial transepithelial electrical resistance (TEER) readings were obtained using an EVOM2 Voltohmmeter (EVOM, World Precision Instruments, Berlin) equipped with STX100 Electrodes. TEER values correlate with the tightness of the confluent monolayer (Srinivasan et al. 2015).
The background TEER (insert) was subtracted from total TEER (cell monolayer plus insert) to yield the monolayer resistance and then normalized to surface area by multiplying with the area of the insert (Srinivasan et al. 2015). The integrity of the monolayer was determined at basal level by measuring TEER. A TEER of 300 Ωcm2 was regarded as a tight monolayer (see results section). Afterwards, the cells were treated with sterile filtered fermentation supernatants or fermentation medium as a control (diluted 1:20 in growth media). After 24 h incubation the resistance across each cell monolayer was measured again and the percentage change in TEER compared to initial TEER for each insert was calculated to represent a healthy gut model. All TEER measurements were done by placing the plates containing the inserts on a 37° C. warming plate and were performed in the same duration.

[3] = tested on: Co-cultures of Caco-2 and HT29-MTX-E12 cells; assay: Barrier integrity, leaky gut model, apical stressor Rhamnolipids; format: cell-based; conditions: vs corresponding control; for Lucifer yellow, apical induction of leaky gut cellular model: 48 h fermentation samples; for TEER, apical induction of leaky gut cellular model: 48 h minus 0 h fermentation samples
Experimental: Since ethanol is known to have antimicrobial effects, two blanks for each type of stock solution were included. As a source of the microbial community, a freshly prepared fecal suspension from the selected donor was added to the reactors. […] All tests, except the blanks, were performed in single repetition, resulting in 40 independent incubations, as specified in Table 1. Incubation conditions of the pre-screening experiment and the final experiment were 48 h at 37° C., under shaking (90 rpm) and anaerobic conditions. […] Effluent samples were collected from each fermentation flask before (0 h fermentation) and after fermentation (48 h fermentation), sterilized by filtering through 0.22 μm filters and used for short chain fatty acids (SCFA), quantification of immunological biomarkers and in vitro analysis in cell culture systems.
as §5, §6, §7
For both sets of in vitro experiments, the integrity of cell monolayers after the stressor test was evaluated by both TEER values and by measuring the transport of Lucifer yellow from apical to basolateral compartments (Leaky gut model). A prewarmed HBSS transport buffer composed of Hank's Balanced Salt Solution pH 7.4 with Ca2+ and Mg2+, containing 5.5 mM D-(+)-glucose, Sodium Bicarbonate, and supplemented with 4 mM L-glutamine, 20 mM HEPES (Life Technologies Europe B.V., Zug, Switzerland) was used for all permeability experiments. The inserts were rinsed twice with HBSS using a reservoir tray, 100 μl HBSS were then added to the apical site of the inserts and subsequently moved to new wells with fresh HBSS and allowed to equilibrate at 37° C. for 60 min in the incubator followed by TEER measurement to obtain baseline resistance readings.
Lucifer Yellow CH dilithium salt (Sigma-Aldrich, Buchs, Switzerland) was dissolved in HBSS at a final concentration of 100 μg/ml. Basolateral stressor EtOH (Merck, KgaA, Darmstadt, Germany) was diluted to 5% in HBSS. Apical Stressor Rhamnolipids R90 (AGAE Technologies, Corvallis, USA) was dissolved in HBSS containing Lucifer Yellow at a final concentration of 350 μg/ml. All solutions were prepared freshly each time.
The HBSS transport buffer from the basolateral chamber was aspirated first, then the HBSS from the apical chamber and replaced with Lucifer yellow solution. For the apical stressor test, Lucifer yellow solution containing 350 μg/ml Rhamnolipids or Lucifer yellow solution without stressor for the control wells was loaded into the apical compartment, blank HBSS was subsequently added to the basolateral chamber.

[4] = tested on: genes involved in Acetyl-CoA fermentation to Butyrate pathway; assay: Shotgun sequencing functional analysis: butyrate pathway genes (first set); format: cell-based, human; conditions: after 24 h fermentation, vs corresponding control
Experimental: as §1, §2, §3, §4

[5] = tested on: fecal suspension from the selected donor; assay: Intestinal batch fermentation, SCFA production (first set); format: cell-based, human; conditions: 5× dose; after 48 h fermentation; vs corresponding control
Experimental: In a first set of in vitro experiments at the start of intestinal batch fermentation incubation, all test ingredients were added from stock solutions to the modified nutritional medium, containing (g/l): 2.5 K2HPO4, 10.9 KH2PO4, 2 NaHCO3, 2 yeast extract, 2 peptone, 1 mucin, 0.5 cysteine, 2 Tween 80, 2 glucose, 2 starch, 2 cellobiose, 0.1 NaCl, 0.01 MgSO4·7H2O, 0.01 CaCl2·6H2O, 0.05 hemin, 0.5 bile salts.
The other compounds were prepared in ethanol: • Vitamin K1 (VK1), • MEG-3 0080 EE Oil (MEG-3 0080 EE), • MEG-3 4535 EE Oil (MEG-3 4535 EE), • MEG-3 8000 EE Oil (MEG-3 8000 EE).
as §1
Short chain fatty acids (SCFA) are an assessment of the microbial carbohydrate metabolism (acetate, propionate and butyrate) or protein metabolism (branched SCFA) and can be compared to typical fermentation patterns for normal GI microbiota. Samples for SCFA analysis were analyzed after 0, 6, 24 and 48 h of incubation for both set of in vitro experiments, above.
SCFA were extracted from the samples with diethyl ether, after the addition of 2-methyl hexanoic acid as an internal standard. Extracts were analysed using a GC-2014 gas chromatograph (Shimadzu's-Hertogenbosch, the Nether-lands), equipped with a capillary fatty acid-free EC-1000Econo-Cap column (dimensions: […]×0.53 mm, film thickness […]; Alltech, Laarne, Belgium), a flame ionization detector and a split injector. The injection volume was […] and the temperature profile was set from 110 to 160° C., with a temperature increase of 6° C. min-1. The carrier gas was nitrogen and the temperature of the injector and detector were […] and 220° C., respectively. The production of unbranched and branched SCFA was calculated by summing the molar concentrations of acetate, propionate, butyrate, valerate and caproate, and summing isobutyrate, isovalerate and isocaproate molar concentrations, respectively. The total SCFA production was defined as the sum of unbranched and branched SCFA.

[6] = tested on: fecal suspension from the selected donor; assay: Gas production in closed colon incubations (first set); format: cell-based, human; conditions: after 48 h fermentation, vs corresponding control
Experimental: The colon incubations were performed in closed incubation systems. This allowed us to evaluate the accumulation of gasses in the headspace, which can be measured with a pressure meter. Gas production is a measure of microbial activity, and thus of the speed of fermentation of the potentially prebiotic substrates. It can be used as an indication for bloating and digestive wellbeing upon prebiotic consumption.
as §1
For both sets of in vitro experiments, colon incubations were performed in closed incubation systems as described above. This allowed to evaluate the accumulation of gasses in the headspace, which can be measured with a pressure meter. Gas production is a measure of microbial activity, and thus of the speed of fermentation of the potentially prebiotic substrates

## Cc1cc2nc3c(=O)[nH]c(=O)nc-3n(C[C@H](O)[C@H](O)[C@H](O)COP(=O)(O)O)c2cc1C [Vitamin B2-5-phosphate, Riboflavin-5-phosphate]
HT29 cells
  IL-8 production by HT29 cells: increase IL-8 production
Bifidobacterium; 0.2× dose
  Bifidobacterium relative abundance: increase Bifidobacterium relative abundance
Bifidobacterium; 1× dose
  Bifidobacterium relative abundance: increase Bifidobacterium relative abundance
[1]; 0.2× dose
  microbiome alpha diversity (Shannon diversity index): increase microbiome diversity
[1]; 1× dose
  microbiome alpha diversity (Shannon diversity index): increase microbiome diversity
[2]; 0.2× dose
  TEER, healthy gut cellular model: increase TEER
[3]; 0.2× dose
  Lucifer yellow, apical induction of leaky gut cellular model: decrease Lucifer yellow
  TEER, apical induction of leaky gut cellular model: increase TEER
[4]; 0.2× dose
  relative abundance of genes involved in Acetyl-CoA fermentation to Butyrate pathway: increase relative abundance
[4]; 1× dose
  relative abundance of genes involved in Acetyl-CoA fermentation to Butyrate pathway: increase relative abundance
[5]
  butyrate production: increase butyrate production

## O=C1O[C@H]([C@@H](O)CO)C(O)=C1O [Vitamin C, Ascorbic acid]
Bifidobacterium; 1× dose
  Bifidobacterium relative abundance: increase Bifidobacterium relative abundance
[1]; 5× dose
  microbiome alpha diversity (Shannon diversity index): increase microbiome diversity
[2]; 1× dose
  TEER, healthy gut cellular model: increase TEER
[3]; 0.2× dose
  Lucifer yellow, apical induction of leaky gut cellular model: decrease Lucifer yellow
  TEER, apical induction of leaky gut cellular model: increase TEER
[3]; 1× dose
  Lucifer yellow, apical induction of leaky gut cellular model: decrease Lucifer yellow
  TEER, apical induction of leaky gut cellular model: increase TEER
[6]; 1× dose
  gas production: reduced gas production
[6]; 5× dose
  gas production: reduced gas production
[4]; 5× dose
  relative abundance of genes involved in Acetyl-CoA fermentation to Butyrate pathway: increase relative abundance
